Source: patent publication US20250320189A1, “NEW DERIVATIVES FOR TREATING TRPM3 MEDIATED DISORDERS” (Katholieke Universiteit Leuven, priority 2022, published 2025)

Biological target: T1, mouse TRPM3α2 (mTRPM3) ion channel (Mus musculus, UniProt J9SQF3)
T1 construct: expressed in transfected cells; host or cells: flip-in (Flp-In) HEK293
Test: Monitoring the TRPM3 ion channel driven Ca2+ uptake (Fluo-4 AM assay)
Format: cell-based
Conditions: mTRPM3alpha2 overexpressing flip-in HEK293 cells, stimulated with Pregnenolone sulfate (PS) 50 μM
Method: In order to monitor the inhibition of the mouse TRPM3α2 (mTRPM3) ion channel by the compounds of the invention, a cellular system making use of an mTRPM3alpha2 or hTRPM3 overexpressing cell line (flip-in HEK293) was used. The TRPM3 channel was stimulated/opened with Pregnenolone sulfate (PS) (50 μM) which results in Ca^2+ influx.
For mTRPM3, the intracellular Ca^2+ was measured with a Calcium responsive dye, Fluor-4 AMV ester (Invitrogen). Cells were cultured until a confluence of 80-90%, washed with Versene (Invitrogen) and detached from the surface by a short incubation with 0.05% Trypsin (Invitrogen). The trypsination process was stopped by the addition of complete cell culture medium (DMEM, glutamax, 10% FCS, NEAA,Pen-Strep). Cells were collected and resuspended in Krebs buffer without Calcium at RT.
Prior the cell seeding (±2000 cells/well into a black, 384 well plate (Greiner)) the diluted compound was added in the assay plate, together with the PS dissolved in Krebs buffer containing Calcium. […] Directly after cell addition the plates were read on an Envision fluorescence reader (PerkinElmer) by an Excitation of 485 nm and emission at 535 nm.
Channel inhibition was calculated compared to a non-PS stimulated control versus a condition stimulated with PS (50 μM) with vehicle. The ability of the compounds of the invention to inhibit this activity was determined as: Percentage inhibition=[1−((RFU determined for sample with test compound present−RFU determined for sample with positive control inhibitor) divided by (RFU determined in the presence of vehicle−RFU determined for sample with positive control inhibitor))]*100.
The activities of the Example compounds tested are depicted in the table below. The activity ranges A, B and C refer to IC50 values in the Fluo-4 AM assay as follows: “A”: IC50<1 μM; “B”: 1 μM≤IC50≤20 μM and “C”: IC50>20 μM

T1 sequence (J9SQF3 1-1709 isoform J9SQF3-12): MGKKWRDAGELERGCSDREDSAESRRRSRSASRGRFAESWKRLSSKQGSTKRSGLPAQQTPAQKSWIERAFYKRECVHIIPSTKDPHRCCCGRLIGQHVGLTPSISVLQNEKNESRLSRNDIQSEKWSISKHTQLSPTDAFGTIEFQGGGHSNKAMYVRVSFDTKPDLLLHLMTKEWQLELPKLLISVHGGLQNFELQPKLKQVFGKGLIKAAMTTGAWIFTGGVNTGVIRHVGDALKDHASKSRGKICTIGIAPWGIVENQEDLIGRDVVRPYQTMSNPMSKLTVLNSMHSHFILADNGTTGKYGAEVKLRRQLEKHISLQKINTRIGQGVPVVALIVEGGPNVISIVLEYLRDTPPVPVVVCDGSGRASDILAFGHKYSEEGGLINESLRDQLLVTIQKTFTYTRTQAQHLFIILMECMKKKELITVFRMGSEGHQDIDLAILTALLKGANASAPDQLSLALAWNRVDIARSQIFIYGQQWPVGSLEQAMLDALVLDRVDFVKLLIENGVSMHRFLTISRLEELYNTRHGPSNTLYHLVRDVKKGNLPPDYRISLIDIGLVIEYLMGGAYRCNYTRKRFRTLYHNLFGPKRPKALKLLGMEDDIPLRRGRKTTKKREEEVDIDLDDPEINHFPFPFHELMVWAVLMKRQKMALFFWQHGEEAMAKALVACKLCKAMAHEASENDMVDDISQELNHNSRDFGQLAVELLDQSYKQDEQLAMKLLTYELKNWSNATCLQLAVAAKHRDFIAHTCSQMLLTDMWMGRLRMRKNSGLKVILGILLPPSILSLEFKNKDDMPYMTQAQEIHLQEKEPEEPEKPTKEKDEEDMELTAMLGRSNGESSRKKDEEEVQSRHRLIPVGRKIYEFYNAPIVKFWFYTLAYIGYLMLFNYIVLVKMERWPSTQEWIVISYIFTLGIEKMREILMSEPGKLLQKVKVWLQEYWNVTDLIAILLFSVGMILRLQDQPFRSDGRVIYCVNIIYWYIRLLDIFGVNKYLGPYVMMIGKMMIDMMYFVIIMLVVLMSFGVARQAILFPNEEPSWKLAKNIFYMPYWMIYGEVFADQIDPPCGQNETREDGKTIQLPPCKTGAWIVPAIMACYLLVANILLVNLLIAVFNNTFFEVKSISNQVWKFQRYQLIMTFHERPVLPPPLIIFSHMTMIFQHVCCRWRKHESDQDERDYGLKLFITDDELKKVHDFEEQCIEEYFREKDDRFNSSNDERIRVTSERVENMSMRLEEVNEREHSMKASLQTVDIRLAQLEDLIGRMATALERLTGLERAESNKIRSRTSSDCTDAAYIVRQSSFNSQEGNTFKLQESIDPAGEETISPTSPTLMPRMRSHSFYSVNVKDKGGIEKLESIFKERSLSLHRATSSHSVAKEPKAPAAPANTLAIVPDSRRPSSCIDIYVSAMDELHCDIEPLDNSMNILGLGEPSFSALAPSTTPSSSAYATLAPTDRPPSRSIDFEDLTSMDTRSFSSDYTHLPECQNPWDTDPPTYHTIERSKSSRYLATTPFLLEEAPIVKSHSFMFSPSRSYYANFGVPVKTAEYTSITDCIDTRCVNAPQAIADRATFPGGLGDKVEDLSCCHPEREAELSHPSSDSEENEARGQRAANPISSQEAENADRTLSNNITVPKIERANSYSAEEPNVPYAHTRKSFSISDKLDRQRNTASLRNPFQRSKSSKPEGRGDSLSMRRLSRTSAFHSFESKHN

Compound | IC50
Cc1oc2ccc(OCC3CC3)cc2c1C(=O)NC1(C(N)=O)CCOC1 (single isomer, unassigned) [Cpd 035 - En1, N-(3-carbamoyloxolan-3-yl)-5-(cyclopropylmethoxy)-2-methyl-1-benzofuran-3-carboxamide] | < 1000 nM
NC(=O)[C@H](CO)NC(=O)c1c(C(F)F)oc2ccc(OCC3CC3)cc12 [Cpd 008, (2S)-2-{[5-(cyclopropylmethoxy)-2-(difluoromethyl)-1-benzofuran-3-yl]formamido}-3-hydroxypropanamide] | < 1000 nM
Cc1oc2ccc(OCC3CC3)cc2c1C(=O)NC1CCOCC1 [Cpd 022, 5-(cyclopropylmethoxy)-2-methyl-N-(oxan-4-yl)-1-benzofuran-3-carboxamide] | 1000 to 20000 nM
Cc1oc2ccc(OCC3(C(F)F)CC3)cc2c1C(=O)N[C@@H](CO)C(N)=O [Cpd 003, (2S)-2-[(5-{[1-(difluoromethyl)cyclopropyl]methoxy}-2-methyl-1-benzofuran-3-yl)formamido]-3-hydroxypropanamide] | < 1000 nM
Cc1oc2ccc(OCC3CC3(F)F)cc2c1C(=O)NC1CCNCC1(F)F (single isomer, unassigned) [Cpd 031 - En3, 5-[(2,2-difluorocyclopropyl)methoxy]-N-(3,3-difluoropiperidin-4-yl)-2-methyl-1-benzofuran-3-carboxamide] | 1000 to 20000 nM
Cc1oc2ccc(OCC3CC3(C)C)cc2c1C(=O)NC1CCNCC1(F)F (single isomer, unassigned) [Cpd 033-En4, N-(3,3-difluoropiperidin-4-yl)-5-[(2,2-dimethylcyclopropyl)methoxy]-2-methyl-1-benzofuran-3-carboxamide] | 1000 to 20000 nM
Cc1oc2ccc(OCC3CC3)cc2c1C(=O)NC(C)(C)C(N)=O [Cpd 016, 2-{[5-(cyclopropylmethoxy)-2-methyl-1-benzofuran-3-yl]formamido}-2-methylpropanamide] | < 1000 nM
Cc1oc2ccc(OCC3CC3(F)F)cc2c1C(=O)NC1CCNCC1(F)F (single isomer, unassigned) [Cpd 031 - En2, 5-[(2,2-difluorocyclopropyl)methoxy]-N-(3,3-difluoropiperidin-4-yl)-2-methyl-1-benzofuran-3-carboxamide] | < 1000 nM
Cc1oc2ccc(OCC3CC3)cc2c1C(=O)NC1CCNCC1(F)F (single isomer, unassigned) [Cpd 024-En2, 5-(cyclopropylmethoxy)-N-(3,3-difluoropiperidin-4-yl)-2-methyl-1-benzofuran-3-carboxamide] | < 1000 nM
Cc1oc2ccc(OCC3CC3(C)C)cc2c1C(=O)NC1CCNCC1(F)F (single isomer, unassigned) [Cpd 033-En2, N-(3,3-difluoropiperidin-4-yl)-5-[(2,2-dimethylcyclopropyl)methoxy]-2-methyl-1-benzofuran-3-carboxamide] | 1000 to 20000 nM
Cc1oc2ccc(OCC3CC3)cc2c1C(=O)NC1(CO)CCCNC1=O (single isomer, unassigned) [Cpd 027 - En1, 5-(cyclopropylmethoxy)-N-[3-(hydroxymethyl)-2-oxopiperidin-3-yl]-2-methyl-1-benzofuran-3-carboxamide] | < 1000 nM
Cc1oc2ccc(OCC3(C(F)F)CC3)cc2c1C(=O)NC1(C(N)=O)CCOC1 (single isomer, unassigned) [Cpd 036 - En1, N-(3-carbamoyloxolan-3-yl)-5-{[1-(difluoromethyl)cyclopropyl]methoxy}-2-methyl-1-benzofuran-3-carboxamide] | 1000 to 20000 nM
Cc1oc2ccc(OCC3CC3)cc2c1C(=O)NC1(CO)COC1 [Cpd 029, 5-(cyclopropylmethoxy)-N-[3-(hydroxymethyl)oxetan-3-yl]-2-methyl-1-benzofuran-3-carboxamide] | < 1000 nM
Cc1oc2ccc(OCC(F)F)cc2c1C(=O)N[C@@H](CO)C(N)=O [Cpd 038, (2S)-2-{[5-(2,2-difluoroethoxy)-2-methyl-1-benzofuran-3-yl]formamido}-3-hydroxypropanamide] | < 1000 nM
Cc1oc2ccc(OCC3CC3(C)C)cc2c1C(=O)NC1CCNCC1(F)F (single isomer, unassigned) [Cpd 033-En1, N-(3,3-difluoropiperidin-4-yl)-5-[(2,2-dimethylcyclopropyl)methoxy]-2-methyl-1-benzofuran-3-carboxamide] | 1000 to 20000 nM
NC(=O)[C@H](CO)NC(=O)c1c(C2CC2)oc2ccc(OCC3CC3)cc12 [Cpd 004, (2S)-2-{[2-cyclopropyl-5-(cyclopropylmethoxy)-1-benzofuran-3-yl]formamido}-3-hydroxypropanamide] | < 1000 nM
Cc1oc2ccc(OCC3CCC3)cc2c1C(=O)NC(C)(CO)CO [Cpd 018, 5-(cyclobutylmethoxy)-N-(1,3-dihydroxy-2-methylpropan-2-yl)-2-methyl-1-benzofuran-3-carboxamide] | < 1000 nM
Cc1oc2ccc(OCC3CCC3)cc2c1C(=O)NC1CCNCC1(F)F (single isomer, unassigned) [Cpd 019 - En2, 5-(cyclobutylmethoxy)-N-(3,3-difluoropiperidin-4-yl)-2-methyl-1-benzofuran-3-carboxamide] | < 1000 nM
Cc1oc2ccc(OCC3CCC3)cc2c1C(=O)NC(C)(C)C(N)=O [Cpd 015, 2-{[5-(cyclobutylmethoxy)-2-methyl-1-benzofuran-3-yl]formamido}-2-methylpropanamide] | < 1000 nM

Results, then the compound that gave them:

IC50 | Compound
< 1000 nM | Cc1oc2ccc(OCC(C)C)cc2c1C(=O)NC1CCNCC1(F)F (single isomer, unassigned) [Cpd 042 - En2, N-(3,3-difluoropiperidin-4-yl)-2-methyl-5-(2-methylpropoxy)-1-benzofuran-3-carboxamide]
1000 to 20000 nM | Cc1oc2ccc(OC[C@H]3C[C@H](C)C3)cc2c1C(=O)NC(C)(CO)C(N)=O (single isomer, unassigned) [Cpd 059 - En2, Trans-3-hydroxy-2-methyl-2-({2-methyl-5-[(3-methylcyclobutyl)methoxy]-1-benzofuran-3-yl}formamido)propenamide]
< 1000 nM | Cc1oc2ccc(OC[C@@H]3C[C@@H]4C[C@@H]4C3)cc2c1C(=O)NC(C)(CO)C(N)=O (single isomer, unassigned) [Cpd 050 - En2, Cis-2-{[5-({bicyclo[3.1.0]hexan-3-yl}methoxy)-2-methyl-1-benzofuran-3-yl]formamido}-3-hydroxy-2-methylpropanamide]
1000 to 20000 nM | Cc1oc2ccc(OCC3CC3(F)F)cc2c1C(=O)NC(CO)CC(F)(F)F (single isomer, unassigned) [Cpd 057 - En4, 5-[(2,2-difluorocyclopropyl)methoxy]-2-methyl-N-(4,4,4-trifluoro-1-hydroxybutan-2-yl)-1-benzofuran-3-carboxamide]
< 1000 nM | Cc1oc2ccc(OC[C@H]3C[C@@H](C)C3)cc2c1C(=O)NC(C)(CO)C(N)=O (single isomer, unassigned) [Cpd 058 - En1, Cis-3-hydroxy-2-methyl-2-({2-methyl-5-[(3-methylcyclobutyl)methoxy]-1-benzofuran-3-yl}formamido)propenamide]
< 1000 nM | Cc1oc2ccc(OCC3CC3)cc2c1C(=O)NC(CO)C(N)C(F)(F)F (single isomer, unassigned) [Cpd 056 - En2, N-[(2)-3-amino-4,4,4-trifluoro-1-hydroxybutan-2-yl]-5-(cyclopropylmethoxy)-2-methyl-1-benzofuran-3-carboxamide]
1000 to 20000 nM | Cc1oc2ccc(OCC(C)(C)C)cc2c1C(=O)NC1CCNCC1(F)F (single isomer, unassigned) [Cpd 043-En2, N-(3,3-difluoropiperidin-4-yl)-5-(2,2-dimethylpropoxy)-2-methyl-1-benzofuran-3-carboxamide]
< 1000 nM | Cc1oc2cc(F)c(OCC3CC3)cc2c1C(=O)NC(C)(CO)C(N)=O (single isomer, unassigned) [Cpd 045 - En1, 2-{[5-(cyclopropylmethoxy)-6-fluoro-2-methyl-1-benzofuran-3-yl]formamido}-3-hydroxy-2-methylpropanamide]
< 1000 nM | Cc1oc2ccc(OCC3CCCC3)cc2c1C(=O)NC(C)(CO)C(N)=O (single isomer, unassigned) [Cpd 062 - En1, 2-{[5-(cyclopentylmethoxy)-2-methyl-1-benzofuran-3-yl]formamido}-3-hydroxy-2-methylpropanamide]
< 1000 nM | COCC(C)(CO)NC(=O)c1c(C)oc2ccc(OCC3(C(F)(F)F)CC3)cc12 (single isomer, unassigned) [Cpd 060 - En2, N-(1-hydroxy-3-methoxy-2-methylpropan-2-yl)-2-methyl-5-{[1-(trifluoromethyl)cyclopropyl]methoxy}-1-benzofuran-3-carboxamide]
< 1000 nM | Cc1oc2ccc(OCC3CCC3)cc2c1C(=O)NC(C)(CO)C(N)=O (single isomer, unassigned) [Cpd 053 - En2, 2-{[5-(cyclobutylmethoxy)-2-methyl-1-benzofuran-3-yl]formamido}-3-hydroxy-2-methylpropanamide]
